Here are results for 1 compound from patent US7776854B2, “Benzazole derivatives for the treatment of scleroderma” (Merck Serono SA, priority 2001, dated 2010).

For experiment [1], the system named is bleomycin-induced lung fibrosis. The experiment is described as follows: Determination of bleomycin-induced body weight loss. Conditions: C57BL/6 mice. Type of experiment: in vivo. Here is the method:
The objective of the present Assay is to determine the loss of body weight of mice which is usually triggered by bleomycin-induced lung fibrosis.
(§1) Female 10- to 12-week-old C57BL/6 wild-type mice were intratracheally instilled with bleomycin (3.75 U/kg) dissolved in 10 μl saline to induce the fibrosis in the lungs. The treatment with a test compound started on day 0 and was continued daily—from day 0 (1 hour before the bleomycin instillation) to day 17. The test compound was administered orally at different dosages. Control mice were intratracheally instilled with saline on day 0. The body weight loss was recorded on a daily basis and the results of the determination are graphically represented in FIG. 1.

Experiment [2] deals with bleomycin-induced lung inflammation. The experiment is described as follows: Determination of bleomycin-induced pulmonary oedema (lung wet/dry weight difference). Type of experiment: in vivo, mice. On the procedure: as §1
Lung fibrotic changes following instillation of bleomycin result from the infiltration of inflammatory cells like macrophages, lymphocytes and neutrophils into the lungs a well as an increase in pro-inflammatory cytokines such as TNFα. The pulmonary oedema is analyzed to determine whether a test compound affects the bleomycin-induced lung inflammation. What is determined is the difference wet/dry of the examined lungs, where high differences indicate a high degree of pulmonary oedema.
Mice were treated as described in Example 2. The test compound was compound (A) (i.e. 1,3-benzothiazol-2-yl(2-{[4-(morpholin-4-ylmethyl)benzyl]-oxy}pyrimidin-4-yl)aceto-nitrile). […] The lung dry and wet weight differences were calculated and graphically reported in FIG. 2. which illustrates the outcome of the assay for the test compound (A).

In experiment [3] the test system is bleomycin-induced lung fibrosis. The experiment is described as follows: Determination of bleomycin-induced pulmonary fibrosis (histological scoring). Type of experiment: in vivo, mice. On the procedure:
as §1
Injection of bleomycin in mice induces focal fibrotic lesions with thickened intra-alveolar septa, collapse of alveolar septa as well as massive infiltration of lymphocytes into the lung interstitium. Such focal fibrotic lesions are histologically determined on day 17 after bleomycin administration.
Mice were treated as described in Example 2. […] Morphological evaluation of bleomycin-induced lung inflammation and fibrosis was performed using a semiquantitative scoring method consisting in a visual evaluation of histological section photos in which the surface of the fibrotic part of the lung is evaluated compared to the total surface. […]

Experiment [4] shares this test system. The experiment is described as follows: Determination of bleomycin-induced lung collagen content (hydroxyproline). Conditions: 7 mg/kg orally, day 17, p=0.009. Type of experiment: in vivo, mice. On the procedure: as §1
The objective of the present assay is to determine the reduction in lung fibrosis by specifically measuring the hydroxyproline content in the lungs of bleomycin-treated mice. Hydroxyproline is an amino acid component necessary for the build-up of collagen. The quantification of hydroxyproline in the lung after collagen hydrolysis is therefore seen as a suitable indicator for lung collagen content.
Mice were treated as described in Example 2. At day 17 of instillation, the animals were euthanized, and both lungs were removed. Total lung collagen was determined by analysis of hydroxyproline. Briefly, lungs were homogenized in Tris-HCl, pH 7.6, with a Tissue Tearor followed by incubation in Amberlite overnight at 115° C. […] Samples were cooled for 10 min and read at 560 nm on spectrophotometer. […]

The structures appear in SMILES notation.

On to `N#CC(c1ccnc(OCc2ccc(CN3CCOCC3)cc2)n1)c1nc2ccccc2s1` (stereo not shown) [test compound (A), 1,3-benzothiazol-2-yl(2-{[4-(morpholin-4-ylmethyl)benzyl]-oxy}pyrimidin-4-yl)acetonitrile], for which, in experiment [1] (2 mg/kg orally daily, day 17), the “reduction of the loss of body weight induced by bleomycin” value is on record as “about 30%”. Moreover, the body weight course result in experiment [1] (bleomycin instilled, oral daily treatment, day 5 to day 17, versus saline-treated mice) is reported as “stabilization of their body weight”. Besides, the “pulmonary oedema (lung wet/dry weight difference) compared with saline-treated mice” value is “significant reduction” in experiment [2] (2 mg/kg orally, day 17, p=0.016) and “significant reduction” in experiment [2] (7 mg/kg orally, day 17, p=0.009). The “bleomycin-induced lung fibrosis, histological scoring of fibrotic lesions compared with saline-treated mice” value is recorded as “significantly reduced” in experiment [3] (7 mg/kg orally, day 17, p=0.016) and “significantly reduced” in experiment [3] (20 mg/kg orally, day 17, p=0.009). Moreover, in experiment [4], the “lung hydroxyproline content compared with saline-treated mice” value is on record as “significantly lower”.
